Laboratory results published in paper PMC8512555, “Patient-Derived Tumor Chemosensitization of GKB202, an Antrodia Cinnamomea Mycelium-Derived Bioactive Compound” (Molecules, 2021).

Legend:
Format in all cases: cell-based, human
[1] = tested on: colorectal cancer (CRC) patient-derived circulating tumor cells; experiment: Ex vivo viability assay (CellTiter-Glo) on patient-derived CTC spheroids, colorectal cancer; conditions: 6 days; for anti-CTC effect compared with the 5-FU group: 4 and 20 µg/mL; for relative survival rate: vs untreated control cells
Method: (§1) Patients who were diagnosed with oral cancer (OC), hepatocellular carcinoma (HCC) and colorectal cancer (CRC) with stage III or IV were recruited and provided written informed consent to participate in this study. For patients enrolled, clinical profiles including initial cancer staging, medication information, and treatment responses were recorded. Peripheral blood (7.5 mL) was collected in vacated ethylenediaminetetraacetic acid (EDTA) tubes and peripheral blood mononuclear cells (PBMCs) were isolated by gradient gravity centrifugation using Ficoll-Paque. Blood was added to a LeucoSep tube filling with 15 mL of Ficoll-Paque Plus in the bottom of the frit and centrifuged to obtain the PBMC fraction. Then PBMC was resuspended in phosphate-buffered saline (PBS) containing 1% BSA, 2 mM EDTA where CTC was enriched by RosetteSep® CTC Enrichment Cocktail kit. Briefly, the PBMC pellet is incubated with antibodies at room temperature, followed by the addition of PBS containing 2% FBS to the diluted sample. The diluted sample was added on the top of Ficoll-Paque for another centrifugation, then enriched cells were obtained and suspended in DMEM/F12 medium containing EGF, bFGF, and B27 supplement. Cells were seeded onto a substrate of binary colloidal crystals (BCCs). The structure of BCCs has been reported for its ability to enhance the expansion of rare cancer cells. The medium was replaced in each well every four days. Tumor-derived CTC spheroids were checked by optical microscopy.
(§2) To test the anti-tumor activity of natural compounds, CTC spheroids were allowed to grow for four weeks then spheroids were collected to seed into other BCC plates and incubated for 16 h. Two chemotherapy drugs used as the positive control including 5-FU (30 µM), Cisplatin (14.4 µM), GKA201, GKB202 and GKC203 (4 µg/mL and 20 µg/mL) were added to cells and incubated for six days. Cell viability was determined by a CellTiter-Glo® Luminescent Cell Viability Assay (Promega Corporation, Madison, WI, US) where cells were incubated with a Cell-Titer Glo reagent for 10 min and the luminescence was read on a GloMax® Navigator Microplate Luminometer (Promega Corporation, Madison, WI, US). The relative cell viability was calculated as the percentage of cells treated with drugs or natural compounds compared with untreated control cells.

[2] = tested on: oral cancer (OC) patient-derived circulating tumor cells; experiment: Ex vivo viability assay (CellTiter-Glo) on patient-derived CTC spheroids, oral cancer; conditions: for anti-CTC effect compared with the 5-FU group: 4 and 20 µg/mL; for anti-CTC effect compared with the 5-FU group / relative survival rate: 6 days; for relative survival rate: vs untreated control cells; for drug sensitivity of OC patient organoids: Cisplatin and Carboplatin at the same concentration, Figure S3
Method: as §1, §2

[3] = tested on: hepatocellular carcinoma (HCC) patient-derived circulating tumor cells; experiment: Ex vivo viability assay (CellTiter-Glo) on patient-derived CTC spheroids, hepatocellular carcinoma; conditions: 6 days; for anti-CTC effect compared with the 5-FU group: 4 and 20 µg/mL; for relative survival rate: vs untreated control cells
Method: as §1, §2

Row | SMILES | anti-CTC effect compared with the 5-FU group [1] | anti-CTC effect compared with the 5-FU group [2] | anti-CTC effect compared with the 5-FU group [3] | drug sensitivity of OC patient organoids [2] | further results
1 | CC(C)=CCOc1ccc(C2=C(CC(C)C)C(=O)N(O)C2=O)cc1 [GKC203] | no significance | no significance | no significance | – | –
2 | N.N.[Cl][Pt][Cl] [Cisplatin] | – | – | – | sensitive | relative survival rate ([1]; Cisplatin 14.4 µM): 49 ± 10%; relative survival rate ([2]; Cisplatin 14.4 µM): 21 ± 0.3%; relative survival rate ([3]; Cisplatin 14.4 µM): 28 ± 5.8%
3 | CC(C)=CCOc1ccc(C2=C(CC(C)C)C(=O)OC2=O)cc1 [GKA201] | no significance | no significance | no significance | – | –
4 | N.N.O=C([O-])C1(C(=O)[O-])CCC1.[Pt+2] [Carboplatin] | – | – | – | resistant | –
5 | O=c1[nH]cc(F)c(=O)[nH]1 [5-FU] | – | – | – | – | relative survival rate ([1]; 5-FU 30 µM): 49 ± 13%; relative survival rate ([2]; 5-FU 30 µM): 51 ± 13%; relative survival rate ([3]; 5-FU 30 µM): 43 ± 2%
